Measurements as given in PubChem BioAssay AID608 (Sanford-Burnham Center for Chemical Genomics, 2007).
The source made the active and inactive calls. How the calls were made is not given here.

These molecules were tested against Peptidyl-prolyl cis-trans isomerase FKBP1A (Homo sapiens) (UniProt P62942) (assay: FKBP12 binders, biophysical, NMR detection (AID 608)). Conditions: NMR binding, purified FKBP12.
Peptidyl-prolyl cis-trans isomerase FKBP1A (Homo sapiens), sequence (P62942 whole entry, looked up): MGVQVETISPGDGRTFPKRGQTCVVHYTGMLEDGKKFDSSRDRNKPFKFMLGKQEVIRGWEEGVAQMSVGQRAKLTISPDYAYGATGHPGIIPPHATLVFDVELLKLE
For `CC(=O)NCc1nc2ccccc2[nH]1`, the Kd was > 4 mM (inactive).
With `COc1cccc(/C=C/C(=O)O)c1C(C)C` the Kd was > 4 mM (inactive).
`CSc1ccccc1NC(=O)c1cnccn1` was tested, and the Kd was > 4 mM (inactive).
For `Cc1nn2c3ccccc3nc2n(Cc2ccccc2)c1=O`, the Kd was > 4 mM (inactive).
For `NCc1ccc2c(c1)OCCO2`, the Kd was > 4 mM (inactive).
`O=C1CC(=O)N(c2ccccc2)c2ccccc21` was tested, and the Kd was > 4 mM (inactive).
For `Cc1cccc(CO)n1`, the Kd was > 4 mM (inactive).
`CCOC(=O)c1cc(C)n(-n2cnnc2)c1C` was tested, and the Kd was > 4 mM (inactive).
For `CC(C)(C)CC(=O)N1CCC(C(N)=O)CC1`, the Kd was > 4 mM (inactive).
With `OCCCc1nc2ccc(C(F)(F)F)cc2[nH]1` the Kd was > 4 mM (inactive).
For `O=C(O)C1CC(C2CCCCN2)CN2CCCCC12` (stereo unspecified), the Kd was > 4 mM (inactive).
In the case of `CN1CCCn2c1nc1c2c(=O)[nH]c(=O)n1C`, the Kd is reported as > 4 mM (inactive).
`c1cncc(C2CCCCN2)c1` (stereo unspecified) was tested, and the Kd was > 4 mM (inactive).
With `Oc1cc(O)c2c(c1)O[C@H](c1ccc(O)c(O)c1)[C@@H](O)C2` the Kd was > 4 mM (inactive).
`CN1CCN(C(=S)c2ccc(N(C)C)cc2)CC1` was tested, and the Kd was > 4 mM (inactive).
For `O=c1nc(NCc2ccco2)sc2ncccc12`, the Kd was > 4 mM (inactive).
In the case of `Cn1c(=O)n(CC(=O)Nc2cccnc2)c2ccccc21`, the Kd is reported as > 4 mM (inactive).
With `Nc1cc(=O)[nH]c(SCC(=O)Nc2nccs2)n1` the Kd was > 4 mM (inactive).
With `O=c1[nH]cc(N=Cc2ccc(F)cc2)c(=O)[nH]1` the Kd was > 4 mM (inactive).
In the case of `O=C(O)c1snnc1-c1ccccc1`, the Kd is reported as > 4 mM (inactive).
`Oc1ccc2nonc2c1` was tested, and the Kd was > 4 mM (inactive).
`COC(=O)C1[C@H]2C[C@H]3c4[nH]c5ccccc5c4CCN3C[C@@H]2CC[C@@H]1O` (stereo partly specified) was tested, and the Kd was > 4 mM (inactive).
For `Cc1cccc(CSc2nncc(=O)[nH]2)c1`, the Kd was > 4 mM (inactive).
`CC12OC(=O)CC3C(C)(C)[C@H](O)C=C[C@]3(C)C1CC[C@]1(C)C2=CC(=O)O[C@H]1c1ccoc1` (stereo partly specified) was tested, and the Kd was > 4 mM (inactive).
`c1ccc(CN2CCC3(CC2)Nc2ccccc2CO3)cc1` was tested, and the Kd was > 4 mM (inactive).
In the case of `c1nnc2c3c4c(sc3ncn12)CCCC4`, the Kd is reported as > 4 mM (inactive).
In the case of `CC(C)=CCCC1(C)C=Cc2c(O)c3c(c(CC=C(C)C)c2O1)OC12C(=CCCC1C(C)(C)O[C@@]2(C/C=C(\C)C(=O)O)C(=O)O)C3=O` (stereo partly specified), the Kd is reported as > 4 mM (inactive).
For `O=C(Nc1nc2c(s1)CCCC2)c1cccnc1`, the Kd was > 4 mM (inactive).
For `CC(C)c1ccc2c(c1O)CC[C@H]1C3=C(CC[C@]21C)C(=O)OC3`, the Kd was > 4 mM (inactive).
In the case of `CN(C)Cc1nc2c([nH]1)c(=O)[nH]c(=O)n2C`, the Kd is reported as > 4 mM (inactive).
In the case of `NS(=O)(=O)c1ccc(N=C2NC(=O)CS2)cc1`, the Kd is reported as > 4 mM (inactive).
With `Cc1cc[n+](-c2nc([O-])sc2C=O)cc1` the Kd was > 4 mM (inactive).
`O=C(O)CSCC(=O)Nc1cccc(O)c1` was tested, and the Kd was > 4 mM (inactive).
For `CC1CCN(C(=S)c2ccccc2O)CC1`, the Kd was > 4 mM (inactive).
For `COc1ccccc1-c1cn[nH]c(=S)n1`, the Kd was > 4 mM (inactive).
For `Cn1c(=O)[nH]c2nc[nH]c2c1=O`, the Kd was > 4 mM (inactive).
In the case of `COc1ccc2c3c([nH]c2c1)C(C)=NCC3`, the Kd is reported as > 4 mM (inactive).
For `CSc1ncc(CO)n1Cc1ccccc1`, the Kd was > 4 mM (inactive).
`CC1(C)C(=O)N(O)C(C)(C)C(=O)N1O` was tested, and the Kd was > 4 mM (inactive).
For `CN1CCC(NC(=O)c2c(F)cccc2Cl)CC1`, the Kd was > 4 mM (inactive).
For `O=C(O)CCN1CCOCC1`, the Kd was > 4 mM (inactive).
`COc1ccc(NS(=O)(=O)N2CCOCC2)cc1` was tested, and the Kd was > 4 mM (inactive).
For `Cc1cc(=O)cc(C)n1-c1ccccc1N`, the Kd was > 4 mM (inactive).
For `c1csc(-c2nn[nH]n2)c1`, the Kd was > 4 mM (inactive).
`O=C1c2ccccc2C(=O)N1CCc1ccccn1` was tested, and the Kd was > 4 mM (inactive).
`O=C(Nc1cccc2ncccc12)c1cccnc1` was tested, and the Kd was > 4 mM (inactive).
For `CCN1CCC(NC2CCCCNC2=O)CC1` (stereo unspecified), the Kd was > 4 mM (inactive).
For `S=c1nc(Cc2ccccc2)[nH][nH]1`, the Kd was > 4 mM (inactive).
In the case of `COc1ccc(C)cc1S(=O)(=O)N1CCCCC1`, the Kd is reported as > 4 mM (inactive).
With `COc1cc(/C=C2\SC(=S)NC2=O)ccc1O` the Kd was > 4 mM (inactive).
With `COc1ccc2cc1Oc1ccc(cc1)C[C@H]1c3c(cc4c(c3Oc3cc5c(cc3OC)CCN(C)[C@@H]5C2)OCO4)CCN1C` the Kd was > 4 mM (inactive).
In the case of `NC(=O)C1CCCN1S(=O)(=O)c1ccc(F)cc1` (stereo unspecified), the Kd is reported as > 4 mM (inactive).
For `CN1C(=O)c2ccc(N3CCCC3)cc2C1=O`, the Kd was > 4 mM (inactive).
`Cn1c(O)c(/C=C2\C=CC=N2)c(=O)[nH]c1=S` was tested, and the Kd was > 4 mM (inactive).
`Nc1ccc2c(c1)OCO2` was tested, and the Kd was > 4 mM (inactive).
With `Nc1ccc2nccnc2c1` the Kd was > 4 mM (inactive).
With `COc1ccccc1/C=C\C(=O)O` the Kd was > 4 mM (inactive).
For `COCC(=O)/C=C1\Sc2ccccc2N1C`, the Kd was > 4 mM (inactive).
`CC(C)CNc1cc(=O)n(C)c(=O)n1C` was tested, and the Kd was > 4 mM (inactive).
For `CC1(C)C=Cc2c(cc3occ(-c4ccc5c(c4)OCO5)c(=O)c3c2O)O1`, the Kd was > 4 mM (inactive).
With `COc1ccc2c(Cl)c(C(=O)N3CC(C)OC(C)C3)sc2c1` (stereo unspecified) the Kd was > 13.6 mM (inactive).
With `O=C(CN1CCOCC1)Nc1nccs1` the Kd was > 4 mM (inactive).
`CC(=O)Nc1ccc(NC2SC(=O)NC2=O)cc1` (stereo unspecified) was tested, and the Kd was > 4 mM (inactive).
In the case of `COc1ccccc1NC(N)=S`, the Kd is reported as > 4 mM (inactive).
In the case of `Nc1[nH]c(=S)ncc1S(=O)(=O)c1ccccc1`, the Kd is reported as > 4 mM (inactive).
With `CC(=O)Nc1ccc(NC(=O)c2ccnn2C)cc1` the Kd was > 4 mM (inactive).
With `CC(=O)Nc1ccc(S(=O)(=O)N2CCN=C2C)cc1` the Kd was > 4 mM (inactive).
`CCOC(=O)c1c(C)n([O-])c2ccccc2[n+]1=O` was tested, and the Kd was > 4 mM (inactive).
For `OCc1ccc2nonc2c1`, the Kd was > 4 mM (inactive).
`CN(C(=O)c1cc2cccnc2n(C)c1=O)c1ccccc1` was tested, and the Kd was > 4 mM (inactive).
`CC(=O)NN1C(=O)/C(=C\c2ccc(O)cc2)SC1=S` was tested, and the Kd was > 4 mM (inactive).
In the case of `COc1cc(-c2coc3cc(OC)c(OC)c(OC)c3c2=O)cc(OC)c1OC`, the Kd is reported as > 4 mM (inactive).
For `CN=C(C)c1c(O)n(C)c(=S)n(C)c1=O`, the Kd was > 4 mM (inactive).
For `COC(=O)CCC(C)C1CCC2C3CCC4C[C@H](O)CC[C@]4(C)C3C[C@H](O)[C@]12C` (stereo partly specified), the Kd was > 4 mM (inactive).
`NC(=O)c1ccsc1NC(=O)c1ccco1` was tested, and the Kd was > 4 mM (inactive).
`CC1(C)C(=O)[C@@H]2O[C@@H]2[C@@]2(C)C1C[C@@H](O)[C@]1(C)C2CC[C@@]2(C)[C@H](c3ccoc3)OC(=O)C3OC321` (stereo partly specified) was tested, and the Kd was > 4 mM (inactive).
With `O=C1c2ccc(F)cc2C(=O)N1CO` the Kd was > 4 mM (inactive).
`CC1(C)Cc2nc3[nH]c(=S)[nH]c(=O)c3cc2CO1` was tested, and the Kd was > 4 mM (inactive).
`COc1cc(OC)c(-c2nc3cnccc3n2C)cc1OC` was tested, and the Kd was > 4 mM (inactive).
For `O=c1c(O)c(-c2ccccc2)oc2ccc3occc3c12`, the Kd was > 4 mM (inactive).
For `CN(C)Cc1c(N)cccc1O`, the Kd was > 4 mM (inactive).
`Cc1n[nH]c(C)c1N` was tested, and the Kd was > 4 mM (inactive).
For `CCC(=O)OC1[C@@H]2CC3=C4CC(=O)O[C@@H](c5ccoc5)[C@]4(C)CCC3C(C)(C2=O)[C@@H](CC(=O)OC)C1(C)C` (stereo partly specified), the Kd was > 4 mM (inactive).
`O=C(c1cccc(C(F)(F)F)c1)N1CCCC1` was tested, and the Kd was > 4 mM (inactive).
In the case of `N=c1n(N)c2ccccc2n1CCO`, the Kd is reported as > 4 mM (inactive).
In the case of `C#CCCCCCCCCCCCC(=O)CC(O)COC(C)=O` (stereo unspecified), the Kd is reported as > 4 mM (inactive).
`O=C(Nn1cnnc1)c1csc2ccccc12` was tested, and the Kd was > 4 mM (inactive).
`COC(=O)[C@@H]1C(O)CC[C@H]2CN3CCc4c([nH]c5ccccc45)[C@@H]3C[C@@H]21` (stereo partly specified) was tested, and the Kd was > 4 mM (inactive).
`COc1ccc2nc(N)sc2n1` was tested, and the Kd was > 4 mM (inactive).
In the case of `O=C1Nc2ccccc2C12OCCO2`, the Kd is reported as > 4 mM (inactive).
In the case of `COc1ncnc(N)c1[N+](=O)[O-]`, the Kd is reported as > 4 mM (inactive).
For `COc1ccc(C(=O)CC(=O)O)c2c1C=CC(C)(C)O2`, the Kd was > 4 mM (inactive).
With `Cc1occc1C(=O)Nc1ccc2c(c1)CCC2` the Kd was > 4 mM (inactive).
In the case of `N#Cc1cnn(Cc2ccc(Cl)cc2)c1N`, the Kd is reported as > 4 mM (inactive).
With `O=S(=O)(Nc1ccc(Br)cc1)N1CCOCC1` the Kd was “inactive”.
With `Cc1cc(N(CN2CCCC2=O)C(=O)c2ccccc2)no1` the Kd was > 4 mM (inactive).
`CNc1nnc(CSc2nc(C)cc(C)n2)s1` was tested, and the Kd was > 4 mM (inactive).
With `CC(=O)c1csc(-c2cc(C)on2)n1` the Kd was > 4 mM (inactive).
`CN(C)S(=O)(=O)NCc1ccc2c(c1)OCO2` was tested, and the Kd was > 4 mM (inactive).
For `CC(=O)NC(O)C(=O)c1cccs1` (stereo unspecified), the Kd was > 4 mM (inactive).
`CC(C)=CCC/C(C)=C/CC/C(C)=C/CC/C(C)=C/CC/C(C)=C/CC/C(C)=C/CC/C(C)=C/CC/C(C)=C/CC/C(C)=C/CO` was tested, and the Kd was > 4 mM (inactive).
`Nc1ncnc(NCCOCCO)c1[N+](=O)[O-]` was tested, and the Kd was > 4 mM (inactive).
`COc1cccc(NC(=O)c2cccs2)c1` was tested, and the Kd was 0.44 mM.
`Cc1cc(C(=O)Nn2cnnc2)cs1` was tested, and the Kd was > 4 mM (inactive).
In the case of `Oc1cc(O)c2c(c1)O[C@H](c1cc(O)c(O)c(O)c1)[C@H](O)C2`, the Kd is reported as > 4 mM (inactive).
In the case of `CC(=O)Oc1c(C)c(C)c2c(c1C)CCC(C)(CCCC(C)CCCC(C)CCCC(C)C)O2` (stereo unspecified), the Kd is reported as > 4 mM (inactive).
In the case of `CCc1ccccc1NC(=O)c1cnccn1`, the Kd is reported as > 4 mM (inactive).
In the case of `COC(=O)C[C@H]1C2(C)CC34OC5(C)O[C@@]6([C@H](OC)C(OC(=O)C(C)C)[C@]7(C)C(/C(=C(/OC)C(C)C)C(=O)O[C@H]7c7ccoc7)[C@@]6(O5)[C@H](OC)[C@@]3(OC)C2OC(C)=O)[C@]14C` (stereo partly specified), the Kd is reported as > 4 mM (inactive).
With `O=C(NCO)c1ccccc1Cl` the Kd was > 4 mM (inactive).
With `COc1c(C(=O)N2CCCC2)ccc2ccccc12` the Kd was > 4 mM (inactive).
For `O=C1C2C3C=CC(O3)C2C(=O)N1c1ccccc1` (stereo unspecified), the Kd was > 4 mM (inactive).
With `CCC(C)C(NC)C(=O)O` (stereo unspecified) the Kd was > 4 mM (inactive).
In the case of `CCOc1ccc(N2C(=O)CCC2=O)cc1`, the Kd is reported as > 4 mM (inactive).
With `N#Cc1nc(-c2ccccc2Cl)oc1N1CCOCC1` the Kd was > 4 mM (inactive).
With `CC1(C)C=Cc2cc3ccc(=O)oc3cc2O1` the Kd was > 4 mM (inactive).
For `COn1c(=O)c(C)[n+]([O-])c2ccccc21`, the Kd was > 4 mM (inactive).
